Laboratory results: patent publication US12642786B2, “Methods, compositions and kits for treating multiple sclerosis and other disorders” (The Johns Hopkins University, priority 2018, dated 2026)
“Also recorded” adds a separate entry of the source.

Legend:
[1] = test system: bone marrow-derived dendritic cells (BMDCs); test: BMDC CD40 and CD86 expression by flow cytometry; type: cell-based, C57BL/6J mice
Protocol: All staining procedures were performed in the dark at room temperature. For analysis of surface marker expression on bone marrow-derived DCs, cells were first stained with LIVE/DEAD aqua (Life Technologies, L-34966) for 30 min at room temperature in PBS. Fc receptors were blocked with anti-CD16/CD32 (Biolegend, 101320) for the final 10 min of staining. The cells were then washed and stained with specific conjugated antibodies for the specified surface markers in FACS buffer (PBS supplemented with 2% FBS and 1 mM EDTA) for 30 min.
Cells were analyzed by flow cytometry using a MACSQuant flow cytometer (Miltenyi Biotec). Flow data analysis was performed in FlowJo (FlowJo) or FlowLogic (Inivai).
BMDCs were generated as described in Lutz, “An advanced culture method for generating large quantities of highly pure dendritic cells from mouse bone marrow,” 1999, J. Immunol. Methods 223:77-92, with minor modifications. Briefly, femurs were removed from 6-10-wk-old female C57BL/6J mice, cut on both ends, and marrow flushed with PBS. Bone marrow cells were then pelleted by centrifugation (500×g for 8 min), resuspended in red blood cell lysis buffer (Sigma) for 1 min, and quenched with excess PBS. After another centrifugation, cells were resuspended in complete RPMI (cRPMI) media consisting of RPMI-1640 with GlutaMAX™ supplement (Thermo Fisher Scientific) supplemented with 10% FBS, penicillin-streptomycin (Gibco), and 50 μM 2-mercaptoethanol (Sigma). On day 0, ˜2×10^6 cells were then seeded per 100-mm plate in 10 mL media containing 20 ng/mL rmGM-CSF (Peprotech). On day 3, an additional 10 mL fresh cRPMI media containing 20 ng/mL rmGM-CSF was added to each plate. On day 6, half the culture supernatant from each plate was removed and centrifuged, and the pelleted cells resuspended in 10 mL fresh cRPMI with 20 ng/mL rmGM-CSF and added back to the plates. On day 8, all nonadherent cells (representing the BMDC fraction) were collected, pelleted by centrifugation, resuspended in fresh cRPMI media with 20 ng/mL rmGM-CSF, and plated into 24-well dishes. These BMDCs were then treated overnight with or without LPS 100 ng/mL plus the indicated doses of bryo-1. The following day (day 9), these cells were then assayed by flow cytometry or cytokine ELISA.

[2] = test system: EAE (MOG35-55 immunized mice); test: EAE prevention paradigm, clinical scoring; type: in vivo, C57BL/6J mice; settings: 30 μg/kg i.p. 3 d per week from day of MOG35-55 immunization (day 0)
Excerpt: Experimental autoimmune encephalomyelitis (EAE) is an experimental animal model that recapitulates some aspects of MS. In the active-induction model of mouse EAE, mice are immunized with a peptide derived from myelin oligodendrocyte glycoprotein (MOG35-55), resulting in robust CNS inflammation causing demyelination, axonal injury, and motor weakness/paralysis.
Active EAE was induced in 8-12 wk-old female C57BL/6J mice that had been allowed to acclimatize to the animal facility for at least 1 wk. MOG35-55 peptide dissolved in PBS at a concentration of 2 mg/mL was mixed 1:1 with complete Freund's adjuvant to make an emulsion. On day 0, mice were immunized by injecting 50 μL of the emulsion s.c. into each of two sites on the lateral abdomen. In addition, on day 0 and again on day 2, mice were injected intraperitoneally with 250 ng pertussis toxin. Mice were weighed and scored beginning on day 7 post-immunization. Scoring was performed in a blinded manner according to the following scale:
Bryo-1 was prepared by initially dissolving in 100% ethanol and then further diluting to 20% ethanol and 1% DMSO in PBS. The final concentration of bryo-1 was […] Mice were treated by i.p. injection of […] bryo-1 or an equal volume of vehicle control (20% ethanol and 1% DMSO in PBS) 3 d per week (Monday, Wednesday, Friday). […]

[3] = test system: murine peritoneal macrophages (mPMs); test: mPM arginase-1 expression by Western blot; type: cell-based; settings: IL-4 20 ng/mL
Protocol: Cells were lysed by sonication in RIPA buffer supplemented with protease inhibitors, and protein concentration was measured by Bradford assay. Lysates were mixed with SDS sample buffer, boiled, and resolved by SDS/PAGE. Bands were transferred to PVDF Immobilon P membranes (Millipore) using a wet transfer, blocked in TBS-T containing 5% milk, and probed overnight at 4° C. with mouse monoclonal antibody against arginase-1 (Santa Cruz Biotechnology, catalog #sc-271430, 1:500). HRP-conjugated anti-mouse secondary antibody was from Jackson ImmunoResearch. Western blots were visualized using the SuperSignal West ECL system (Thermo Scientific), followed by film exposure. Blots were then stripped using Restore Western blot stripping buffer (Thermo Scientific, catalog #21059), blocked again as earlier, and probed overnight at 4° C. with HRP-conjugated anti-actin antibody before visualization as earlier. Quantitation was performed using ImageJ software.
Mice aged 8-12 wk were injected intraperitoneally with 2 mL each of 3% sterile thioglycolate (BD Biosciences, catalog #211716) medium. […] Cells were then counted, equal numbers were plated into each well of appropriate cell culture dishes, and the cells were then incubated at 37° C. for 2-4 h to allow macrophage adhesion. […]

SMILES: CCC/C=C/C=C/C(=O)OC1/C(=C/C(=O)OC)CC2CC(C(C)O)OC(=O)CC(O)CC3CC(OC(C)=O)C(C)(C)C(O)(CC4C/C(=C/C(=O)OC)CC(/C=C/C(C)(C)C1(O)O2)O4)O3 (stereo not drawn) [bryo-1, Bryostatin-1]
- CD86 expression in LPS-stimulated BMDCs ([1]; LPS 100 ng/mL): no effect
- LPS-induced up-regulation of CD40 ([1]; LPS 100 ng/mL, bryo-1 at either 20 or 200 nM): abrogated
- CD40 expression ([1]; absence of LPS, overnight): no significant effect
- CD86 expression ([1]; absence of LPS, overnight): up-regulates CD86
- onset of EAE (clinical course) [2]: abolished the onset of EAE
- IL-4-induced expression of arginase-1 [3]: augments expression; also recorded: potentiated
